Literature values in patent publication US20210275558A1, “METHODS FOR TREATING, PHARMACEUTICAL COMPOSITIONS AND USES THEREOF” (Boehringer Ingelheim International GmbH, priority 2018, published 2021).

Legend:
[1] = in vivo
[2] = crystalline form
[3] = test system: patients with type 2 diabetes mellitus and high cardiovascular risk
[4] = secondary outcomes analyses, patients with type 2 diabetes and established cardiovascular disease

SMILES: OC[C@H]1O[C@@H](c2ccc(Cl)c(Cc3ccc(O[C@H]4CCOC4)cc3)c2)[C@H](O)[C@@H](O)[C@@H]1O [empagliflozin, 1-chloro-4-(β-D-glucopyranos-1-yl)-2-[4-((S)-tetrahydrofuran-3-yloxy)-benzyl]benzene]
- diuretic, arterial stiffness and vascular effects [1]: diuretic effect, reduced arterial stiffness and direct vascular effects
- solubility [2]: good solubility properties
- stability [2]: physico-chemically stable
- reflex-mediated sympathetic activation ([3]; in contrast to increases observed with diuretics): not being associated with clinically relevant reflex-mediated sympathetic activation
- blood pressure and heart rate ([3]; in vivo): blood pressure reductions without clinically relevant changes of the heart rate
- risk of cardiovascular death, hospitalization for heart failure and overall mortality ([3]; patients with type 2 diabetes mellitus and high cardiovascular risk): reduced the risk of cardiovascular death, hospitalization for heart failure and overall mortality
- progression of kidney disease [3, 4]: slowed progression of kidney disease
- risk for clinically relevant kidney events (inclusive end-stage kidney disease) [3, 4]: reduced the risk for clinically relevant kidney events
